Reference: US8420677B2, “Use of 3,3′-diindolylmethane” (priority 2008, dated 2013)

Tested on: D257A mice
Test: Auditory brainstem response (ABR) hearing function test in D257A mice fed the compounds
Assay type: in vivo
Text: The test system was D257A−/− (D257A) mice that express a proofreading-deficient version of the mitochondrial DNA polymerase γ (POLG). These mice display features of accelerated aging including age related hearing loss (presbycusis). Hearing loss can be monitored by an elevation in auditory-evoked brainstem response (Kujoth et al., Science 309, 481-484, 2005).
Heterozygous D257A (−1+) mice were bred to generate homozogous D257A (−/−) mice, denoted D257A hereafter. Animals were identified with specific numbering and ear clippings. D257A mice were placed in various dietary regimens following PCR based genotyping and weaning at 3 weeks of age. Mice received a diet based on AIN-93M maintenance purified diet (TestDiet, Richmond, USA), with neither no supplementation (Control group), or supplementation with DIM (40 mg/kg, BioResponse LLC Boulder, Colo.), (−)-epigallocatechin gallate, or (EGCG) (300 mg/kg, DSM Nutritional Products, Switzerland).
Hearing function was tested in 9 month-old D257A mice receiving the various compounds. Auditory brainstem responses (ABRs) were measured with a tone burst stimulus (8, 16 and 32 kHz) using an ABR recording system (Intelligent Hearing System, Miami Fla.). Animals were anesthetized with a mixture of xylazine hydrochloride (10 mg/kg, i.m.) and ketamine hydrochloride (40 mg/kg, i.m.), and needle electrodes were placed subcutaneously at the vertex (active electrode), beneath the pinna of the measured ear (reference electrode), and beneath the opposite ear (ground). The stimulus duration, presentation rate, and rise/fall time was 3 ms, 19.3/s, and 1 ms respectively. Responses of 1024 sweeps were averaged at each intensity level (5 dB steps) to access the hearing threshold. The hearing threshold was defined as the lowest intensity level at which a clear reproducible waveform was visible in the trace. Means of ABR thresholds were compared at 8, 16 and 32 kHz.

With `c1ccc2c(Cc3c[nH]c4ccccc34)c[nH]c2c1` [DIM, 3,3′-diindolylmethane] the “hearing threshold (auditory-evoked brain stem response threshold)” value (8 kHz, 9 month-old D257A mice, DIM 40 mg/kg in diet, control approximately 40 dB) was “approximately 10 dB”, the “deaf mice (no auditory-evoked brainstem response)” value (8 kHz, 9 month-old D257A mice, diet supplementation from weaning (DIM 40 mg/kg, EGCG 300 mg/kg), control 3 out of 8 deaf) was “no deaf mice” and the “percentage of deaf mice” value (32 kH, 9 month-old D257A mice, compared to the control group and the other tested compounds) was “significantly lower”. The “effect on age related hearing loss” value (supplementation from early age on, D257A mice) was “protective effect”.
